pIC50: −log10 of the molar value. Values joined by “and” are separate entries in the source; they are usually repeats but may differ in a detail not shown here. Equal values may be shown once. Read-outs that look alike come from different tables or passages of the source.
Key:
HCT-116 cells = experiment: Cell viability assay, parental HCT-116 and HQ461-resistant HCT-116 clones; type: cell-based, Homo sapiens; conditions: for CellTiter-Glo (ATP): raw signal, listed as 0461; for pIC50: Homo sapiens, HCT-116
Description: Seven hundred A549 cells or 1,000 HCT-116 cells in 50 µL of medium were plated per well in 384-well flat clear bottom white polystyrene TC-treated microplates (Corning, Corning, USA). After overnight attachment, cells were dosed with a serial dilution of HQ461 with a D300e digital dispenser (Tecan, Männedorf, Switzerland). Cell survival was measured 72 hr later using CellTiter-Glo luminescent cell viability assay kit (Promega, Madison, USA) following vendor instructions. Luminescence was recorded by EnVison multimode plate reader (PerkinElmer, Waltham, USA). IC50 was determined with GraphPad Prism using baseline correction (by normalizing to DMSO control), the asymmetric (five parameter) equation, and least squares fit.
Parental HCT-116 were plated sparsely on 10 cm plates to allow the isolation of ten individual clones. Each of these ten clones were expanded to one confluent 15 cm plate to establish ten independent cell populations. One million cells from each population were then plated on one 10 cm plate and treated with 20 µM HQ461 continuously for two weeks, with media change every 3 to 4 days. HQ461 resistant clones emerged from 5 out of the 10 populations. These clones were isolated, expanded, and tested for their sensitivity to HQ461 using cell viability assay. Five HQ461-resistant clones selected from independent populations were subjected to genomic DNA isolation as described in the previous session. Their genomic DNAs were then pooled in equal amounts for whole-exome sequencing at 200x average coverage (Novogene, Beijing, China). As a control, genomic DNAs isolated from the corresponding cell populations before HQ461 selection were also pooled for whole-exome sequencing. Raw sequencing data have been deposited to NCBI GEO (GSE153707).

CCNK = experiment: In vivo polyubiquitination of CCNK (HEK293T); type: cell-based, Homo sapiens; conditions: wild-type CDK12 co-expressed
Description: Wild-type and G731E/R ORFs of 3 × FLAG-CDK12, either full length or the kinase domain (from resides 715–1052), were cloned into the pCDNA3.1-N-3xFLAG vector. An ORF encoding CCNK (NM_001099402.2) was PCR amplified with A549 cDNA and cloned into a pCDNA3.1-C-3xHA vector. pCMV-8 ×His Ub was a gift from Dr. William Kaelin at Dana Farber Cancer Institute of Harvard. To set up cells for the in vivo ubiquitination assay, 0.6 million HEK293T cells were seeded per well in six-well tissue-culture plates. After overnight attachment, these cells were transfected with 500 ng of pCMV 8 × His Ub, 25 ng of pCDNA3.1-CCNK-3xHA, and 50 ng of pCDNA3.1-3xFLAG-CDK12. Two days later, cells were pretreated with 1 µM of bortezomib for 2 hr, followed by treatment with DMSO or three doses of HQ461 (1, 3, 10 µM) for 4 hr. Cells from each well were rinsed once with DPBS and lysed in 500 μL of buffer 1 (25 mM Tris-HCl, pH 8.0, 8 M urea, 10 mM imidazole) freshly supplemented with one units/µL of benzonase and 1x cOmplete, Mini, EDTA-free protease inhibitor cocktail (Roche, Bazel, Switzerland). Lysates were clarified by spinning at 15,000 xg at 4°C for 10 min. Clarified lysate of each sample was mixed with 10 µL of Ni NTA magarose beads (SMART Life Sciences, Changzhou, China, SM00801) prewashed with lysis buffer. […]

CDK12KD/CCNKΔC = target: T1, CDK12KD/CCNKΔC (Homo sapiens, UniProt Q9NYV4); experiment: Differential Scanning Fluorimetry (DSF), CDK12KD/CCNKΔC; type: binding; conditions: 50 µM HQ461, Sypro Orange; read-out: increase in melting temperature (Tm) of CDK12KD/CCNKΔC
T1 construct: Human CDK12KD (residues 715–1052); 6xHis (PreScission site) (N, cleaved yes); made in house; host or cells: Sf9 or High Five, co-infected with yeast CAK1
Description: CDK12KD/CCNKΔC (WT or G731E/R) and DDB1ΔBPB were diluted to 5 μM with DSF assay buffer (50 mM HEPES pH 7.5, 300 mM NaCl, 0.5 mM TCEP). 50 µM HQ461 or 10 µM HBx was added to diluted proteins (final DMSO concentration 0.25%). Twenty µL of protein-compound mix was aliquoted per qPCR tube (Labtidebiotech, Shanghai, China, P01-0803E) followed by the addition of 5 µL of 1:400 diluted SYPRO Orange (Sigma-Aldrich, MO, USA, S5692). After incubation on ice for 20 min, fluorescence measurements were performed using a Bio-Rad CFX96 Realtime PCR instrument. During the DSF experiment, the temperature was increased from 10°C to 95°C at an increment of 0.5 °C with equilibration time of 10 s at each temperature prior to measurement. Tm was defined as the temperature corresponding to the maximum value of the first derivative of fluorescence transition.

T1 sequence (Q9NYV4 715-1052, stated change not applied): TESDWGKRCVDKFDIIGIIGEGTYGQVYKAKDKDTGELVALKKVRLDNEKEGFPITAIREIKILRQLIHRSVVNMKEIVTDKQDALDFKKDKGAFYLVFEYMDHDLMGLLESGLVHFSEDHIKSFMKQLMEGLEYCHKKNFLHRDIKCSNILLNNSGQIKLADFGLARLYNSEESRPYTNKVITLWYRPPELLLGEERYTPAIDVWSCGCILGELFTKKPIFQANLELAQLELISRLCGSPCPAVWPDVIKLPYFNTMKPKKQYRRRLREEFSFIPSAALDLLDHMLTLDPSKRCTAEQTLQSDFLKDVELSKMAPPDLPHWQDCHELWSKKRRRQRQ
T1 sequence (O75909 11-267 partner limits assumed): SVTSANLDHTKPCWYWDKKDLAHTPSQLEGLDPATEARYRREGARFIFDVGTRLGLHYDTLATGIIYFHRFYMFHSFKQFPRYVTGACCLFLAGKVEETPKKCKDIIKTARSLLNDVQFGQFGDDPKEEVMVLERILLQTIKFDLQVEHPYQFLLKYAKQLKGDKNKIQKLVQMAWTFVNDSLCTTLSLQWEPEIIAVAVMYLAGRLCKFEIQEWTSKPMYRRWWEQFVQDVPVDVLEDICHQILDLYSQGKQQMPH

With `Cc1cccc(Nc2nc(CC(=O)Nc3ncc(C)s3)cs2)n1` [HQ461, 2-(2-((6-methylpyridin-2-yl)amino)thiazol-4-yl)-N-(5-methylthiazol-2-yl)acetamide] the “CellTiter-Glo (ATP)” value (HCT-116 cells; HCT-116 Parental, 1.43856e-6 M) was 1.76E+06 and 1.77E+06 and 2.14E+06 and 2.07E+06, the “CellTiter-Glo (ATP)” value (HCT-116 cells; HCT-116 Parental, 1.85257e-5 M) was 147560 and 197570 and the “CellTiter-Glo (ATP)” value (HCT-116 cells; HCT-116 Parental, 1.91632e-5 M) was 303300 and 182560. The “CellTiter-Glo (ATP)” value (HCT-116 cells; HCT-116 Parental, 3.09439e-5 M) was 96830 and 121990, the “CellTiter-Glo (ATP)” value (HCT-116 cells; HCT-116 Parental, 3.21364e-5 M) was 122490 and 116460 and the “CellTiter-Glo (ATP)” value (HCT-116 cells; HCT-116 Parental, 5.00E-07 M) was 1.93E+06 and 2.16E+06. The “CellTiter-Glo (ATP)” value (HCT-116 cells; HCT-116 Parental, 5.19E-07 M) was 1.68E+06 and 1.79E+06, the “CellTiter-Glo (ATP)” value (HCT-116 cells; HCT-116 Parental, 7.99E-07 M) was 2.18E+06 and 1.85E+06 and the “CellTiter-Glo (ATP)” value (HCT-116 cells; HCT-116 Parental, 8.79E-07 M) was 1.85E+06 and 1.84E+06. For the same molecule, the “CellTiter-Glo (ATP)” value (HCT-116 cells; HCT-116 resistant clone 2R, 1.27872e-6 M) was 1.68E+06 and 1.80E+06, the “CellTiter-Glo (ATP)” value (HCT-116 cells; HCT-116 resistant clone 2R, 1.35864e-6 M) was 1.87E+06 and 1.72E+06 and the “CellTiter-Glo (ATP)” value (HCT-116 cells; HCT-116 resistant clone 2R, 1.71705e-5 M) was 742920 and 664400. The “CellTiter-Glo (ATP)” value (HCT-116 cells; HCT-116 resistant clone 2R, 1.78082e-5 M) was 650900 and 675880, the “CellTiter-Glo (ATP)” value (HCT-116 cells; HCT-116 resistant clone 2R, 2.87969e-5 M) was 418620 and 384180 and the “CellTiter-Glo (ATP)” value (HCT-116 cells; HCT-116 resistant clone 2R, 2.98307e-5 M) was 380430 and 316510. The “CellTiter-Glo (ATP)” value (HCT-116 cells; HCT-116 resistant clone 2R, 7.99E-07 M) was 1.71E+06 and 1.76E+06 and 1.66E+06 and 1.65E+06, the “CellTiter-Glo (ATP)” value (HCT-116 cells; HCT-116 resistant clone 5R, 1.1988e-6 M) was 1.40E+06 and 1.72E+06 and the “CellTiter-Glo (ATP)” value (HCT-116 cells; HCT-116 resistant clone 5R, 1.27872e-6 M) was 1.47E+06 and 1.50E+06. For the same molecule, the “CellTiter-Glo (ATP)” value (HCT-116 cells; HCT-116 resistant clone 5R, 1.59745e-5 M) was 708690 and 643890, the “CellTiter-Glo (ATP)” value (HCT-116 cells; HCT-116 resistant clone 5R, 1.65326e-5 M) was 713930 and 686510 and the “CellTiter-Glo (ATP)” value (HCT-116 cells; HCT-116 resistant clone 5R, 2.67284e-5 M) was 402240 and 357240. The “CellTiter-Glo (ATP)” value (HCT-116 cells; HCT-116 resistant clone 5R, 2.77628e-5 M) was 421400 and 366190, the “CellTiter-Glo (ATP)” value (HCT-116 cells; HCT-116 resistant clone 5R, 7.19E-07 M) was 1.56E+06 and 1.54E+06 and 1.42E+06 and 1.57E+06 and the “CellTiter-Glo (ATP)” value (HCT-116 cells; HCT-116 resistant clone 6R, 1.11888e-6 M) was 1.62E+06 and 1.45E+06. The “CellTiter-Glo (ATP)” value (HCT-116 cells; HCT-116 resistant clone 6R, 1.1988e-6 M) was 1.35E+06 and 1.55E+06, the “CellTiter-Glo (ATP)” value (HCT-116 cells; HCT-116 resistant clone 6R, 1.48579e-5 M) was 838610 and 815000 and the “CellTiter-Glo (ATP)” value (HCT-116 cells; HCT-116 resistant clone 6R, 1.54163e-5 M) was 808740 and 730030. For the same molecule, the “CellTiter-Glo (ATP)” value (HCT-116 cells; HCT-116 resistant clone 6R, 2.48182e-5 M) was 327830 and 270480, the “CellTiter-Glo (ATP)” value (HCT-116 cells; HCT-116 resistant clone 6R, 2.57734e-5 M) was 314810 and 296570 and the “CellTiter-Glo (ATP)” value (HCT-116 cells; HCT-116 resistant clone 6R, 6.71E-07 M) was 1.36E+06 and 1.56E+06. The “CellTiter-Glo (ATP)” value (HCT-116 cells; HCT-116 resistant clone 6R, 6.95E-07 M) was 1.61E+06 and 1.53E+06, the “CellTiter-Glo (ATP)” value (HCT-116 cells; HCT-116 resistant clone 8R, 1.03896e-6 M) was 1.50E+06 and 1.58E+06 and the “CellTiter-Glo (ATP)” value (HCT-116 cells; HCT-116 resistant clone 8R, 1.11888e-6 M) was 1.51E+06 and 1.63E+06. For the same molecule, the “CellTiter-Glo (ATP)” value (HCT-116 cells; HCT-116 resistant clone 8R, 1.42995e-5 M) was 543300 and 1.00E+06, the “CellTiter-Glo (ATP)” value (HCT-116 cells; HCT-116 resistant clone 8R, 2.30667e-5 M) was 427880 and 390970 and the “CellTiter-Glo (ATP)” value (HCT-116 cells; HCT-116 resistant clone 8R, 2.39426e-5 M) was 409850 and 403510. For the same molecule, the “CellTiter-Glo (ATP)” value (HCT-116 cells; HCT-116 resistant clone 8R, 4.00787e-5 M) was 298050 and 276140, the “CellTiter-Glo (ATP)” value (HCT-116 cells; HCT-116 resistant clone 8R, 6.23E-07 M) was 1.45E+06 and 1.63E+06 and the “CellTiter-Glo (ATP)” value (HCT-116 cells; HCT-116 resistant clone 8R, 6.47E-07 M) was 1.55E+06 and 1.60E+06. The “CellTiter-Glo (ATP)” value (HCT-116 cells; HCT-116 resistant clone 9R, 1.03896e-6 M) was 288440 and 333120, the “CellTiter-Glo (ATP)” value (HCT-116 cells; HCT-116 resistant clone 9R, 2.13941e-5 M) was 65580 and 36800 and the “CellTiter-Glo (ATP)” value (HCT-116 cells; HCT-116 resistant clone 9R, 2.22704e-5 M) was 50040 and 30190. The “CellTiter-Glo (ATP)” value (HCT-116 cells; HCT-116 resistant clone 9R, 3.58708e-5 M) was 46680 and 23830, the “CellTiter-Glo (ATP)” value (HCT-116 cells; HCT-116 resistant clone 9R, 3.72209e-5 M) was 43970 and 22740 and the “CellTiter-Glo (ATP)” value (HCT-116 cells; HCT-116 resistant clone 9R, 5.79E-07 M) was 315200 and 382800. The “CellTiter-Glo (ATP)” value (HCT-116 cells; HCT-116 resistant clone 9R, 5.99E-07 M) was 335950 and 324000, the “CellTiter-Glo (ATP)” value (HCT-116 cells; HCT-116 resistant clone 9R, 9.59E-07 M) was 277130 and 355980 and the “increase of IC50 relative to parental HCT-116 cells” value (HCT-116 cells; HQ461-resistant HCT-116 clones) was “three-fold”. The pIC50 (HCT-116 cells; five HQ461-resistant clones, read-out: IC50 on the viability of five HQ461-resistant HCT-116 clones) was 4.84 to 4.89, the pIC50 (HCT-116 cells; read-out: IC50 on the viability of parental HCT-116) was 5.34 and the “CCNK polyubiquitination in cells” value (CCNK) was “increased CCNK polyubiquitination”. For the same molecule, the ΔTm at 50 µM (CDK12KD/CCNKΔC) was 1.4 °C.

From paper PMC7462607 (eLife, 2020)
